Measurements reported in PubChem BioAssay (NCI).
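Briefly, cells in 96-well plates were exposed to five compound concentrations for 48 h, and endpoints were estimated by linear interpolation. TGI: concentration producing complete growth inhibition.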

Experiments:
Experiment in all cases: NCI-60 cell line screen, 48 h
786-0 renal = tested on: 786-0 renal
K-562 leukemia = tested on: K-562 leukemia
NCI-H23 lung = tested on: NCI-H23 lung
NCI/ADR-RES ovarian = tested on: NCI/ADR-RES ovarian
CCRF-CEM leukemia = tested on: CCRF-CEM leukemia
RPMI-8226 leukemia = tested on: RPMI-8226 leukemia
SK-MEL-28 melanoma = tested on: SK-MEL-28 melanoma
LOX IMVI melanoma = tested on: LOX IMVI melanoma
SK-OV-3 ovarian = tested on: SK-OV-3 ovarian
HCT-15 colon = tested on: HCT-15 colon
RXF 393 renal = tested on: RXF 393 renal
HT29 colon = tested on: HT29 colon
A498 renal = tested on: A498 renal
UACC-257 melanoma = tested on: UACC-257 melanoma
ACHN renal = tested on: ACHN renal
U251 CNS = tested on: U251 CNS
PC-3 prostate = tested on: PC-3 prostate
MDA-N = tested on: MDA-N
SNB-19 CNS = tested on: SNB-19 CNS
SNB-75 CNS = tested on: SNB-75 CNS
SN12C renal = tested on: SN12C renal
SF-268 CNS = tested on: SF-268 CNS
COLO 205 colon = tested on: COLO 205 colon
MOLT-4 leukemia = tested on: MOLT-4 leukemia
HCC-2998 colon = tested on: HCC-2998 colon
HCT-116 colon = tested on: HCT-116 colon
OVCAR-5 ovarian = tested on: OVCAR-5 ovarian
UO-31 renal = tested on: UO-31 renal
SF-539 CNS = tested on: SF-539 CNS
SK-MEL-2 melanoma = tested on: SK-MEL-2 melanoma
HL-60(TB) leukemia = tested on: HL-60(TB) leukemia
SR leukemia = tested on: SR leukemia
EKVX NSCLC = tested on: EKVX NSCLC
MALME-3M melanoma = tested on: MALME-3M melanoma
HOP-92 NSCLC = tested on: HOP-92 NSCLC
NCI-H226 lung = tested on: NCI-H226 lung
MDA-MB-231 breast = tested on: MDA-MB-231 breast
KM12 colon = tested on: KM12 colon
HOP-62 NSCLC = tested on: HOP-62 NSCLC
CAKI-1 renal = tested on: CAKI-1 renal
TK-10 renal = tested on: TK-10 renal
SF-295 CNS = tested on: SF-295 CNS
OVCAR-3 ovarian = tested on: OVCAR-3 ovarian
SK-MEL-5 melanoma = tested on: SK-MEL-5 melanoma
MCF7 breast = tested on: MCF7 breast
T-47D breast = tested on: T-47D breast
NCI-H460 lung = tested on: NCI-H460 lung
SW-620 colon = tested on: SW-620 colon
A549 NSCLC = tested on: A549 NSCLC
NCI-H522 lung = tested on: NCI-H522 lung
OVCAR-4 ovarian = tested on: OVCAR-4 ovarian
BT-549 breast = tested on: BT-549 breast
M14 melanoma = tested on: M14 melanoma
DU-145 prostate = tested on: DU-145 prostate
MDA-MB-435 = tested on: MDA-MB-435
OVCAR-8 ovarian = tested on: OVCAR-8 ovarian
UACC-62 melanoma = tested on: UACC-62 melanoma
IGROV1 ovarian = tested on: IGROV1 ovarian

For CCOC(=O)C(O)(NC(=O)NC(O)(C(=O)OCC)C(F)(F)F)C(F)(F)F (stereo not given), which TGI (786-0 renal) is on record?
Its TGI is over 100 µM.

What about the TGI (K-562 leukemia) of the same compound?
The TGI was over 100 µM.

And the TGI (NCI-H23 lung)?
Its TGI is over 100 µM.

What about the TGI (NCI/ADR-RES ovarian) of the same compound?
Its TGI is over 100 µM.

What about the TGI (CCRF-CEM leukemia) of the same compound?
Its TGI is over 100 µM.

And the TGI (RPMI-8226 leukemia)?
Its TGI is over 100 µM.

And the TGI (SK-MEL-28 melanoma)?
Its TGI is over 100 µM.

And the TGI (LOX IMVI melanoma)?
Its TGI is over 100 µM.

What about the TGI (SK-OV-3 ovarian) of the same compound?
Its TGI is over 100 µM.

And the TGI (HCT-15 colon)?
The TGI was over 100 µM.

And the TGI (RXF 393 renal)?
Its TGI is over 100 µM.

What about the TGI (HT29 colon) of the same compound?
The TGI was over 100 µM.

And the TGI (A498 renal)?
The TGI was over 100 µM.

What about the TGI (UACC-257 melanoma) of the same compound?
The TGI was over 100 µM.

And the TGI (ACHN renal)?
Its TGI is over 100 µM.

What about the TGI (U251 CNS) of the same compound?
Its TGI is over 100 µM.

What about the TGI (PC-3 prostate) of the same compound?
Its TGI is over 100 µM.

And the TGI (MDA-N)?
Its TGI is over 100 µM.

What about the TGI (SNB-19 CNS) of the same compound?
The TGI was over 100 µM.

And the TGI (SNB-75 CNS)?
Its TGI is over 100 µM.

What about the TGI (SN12C renal) of the same compound?
The TGI was over 100 µM.

And the TGI (SF-268 CNS)?
Its TGI is over 100 µM.

What about the TGI (COLO 205 colon) of the same compound?
The TGI was over 100 µM.

What about the TGI (MOLT-4 leukemia) of the same compound?
The TGI was over 100 µM.

And the TGI (HCC-2998 colon)?
Its TGI is over 100 µM.

And the TGI (HCT-116 colon)?
Its TGI is over 100 µM.

What about the TGI (OVCAR-5 ovarian) of the same compound?
Its TGI is over 100 µM.

And the TGI (UO-31 renal)?
Its TGI is over 100 µM.

And the TGI (SF-539 CNS)?
Its TGI is over 100 µM.

What about the TGI (SK-MEL-2 melanoma) of the same compound?
The TGI was over 100 µM.

And the TGI (HL-60(TB) leukemia)?
Its TGI is over 100 µM.

What about the TGI (SR leukemia) of the same compound?
Its TGI is over 100 µM.

Cc1ccc(S(=O)(=O)NC(=O)NC(Cc2ccc(O)c(O)c2)C(=O)O)cc1 (stereo not given) was tested. Which TGI (786-0 renal) did it give?
Its TGI is 34.6 µM.

What about the TGI (K-562 leukemia) of the same compound?
Its TGI is over 100 µM.

What about the TGI (NCI-H23 lung) of the same compound?
The TGI was over 100 µM.

And the TGI (EKVX NSCLC)?
The TGI was over 100 µM.

What about the TGI (NCI/ADR-RES ovarian) of the same compound?
Its TGI is over 100 µM.

And the TGI (CCRF-CEM leukemia)?
The TGI was 63 µM.

What about the TGI (RPMI-8226 leukemia) of the same compound?
Its TGI is over 100 µM.

What about the TGI (MALME-3M melanoma) of the same compound?
Its TGI is over 100 µM.

And the TGI (HOP-92 NSCLC)?
The TGI was over 100 µM.

And the TGI (SK-MEL-28 melanoma)?
The TGI was over 100 µM.

What about the TGI (LOX IMVI melanoma) of the same compound?
The TGI was over 100 µM.

And the TGI (NCI-H226 lung)?
Its TGI is over 100 µM.

And the TGI (HCT-15 colon)?
Its TGI is over 100 µM.

What about the TGI (MDA-MB-231 breast) of the same compound?
Its TGI is over 100 µM.

And the TGI (RXF 393 renal)?
Its TGI is over 100 µM.

What about the TGI (KM12 colon) of the same compound?
The TGI was over 100 µM.

What about the TGI (HT29 colon) of the same compound?
The TGI was over 100 µM.

What about the TGI (A498 renal) of the same compound?
The TGI was over 100 µM.

What about the TGI (HOP-62 NSCLC) of the same compound?
The TGI was over 100 µM.

What about the TGI (CAKI-1 renal) of the same compound?
The TGI was over 100 µM.

What about the TGI (UACC-257 melanoma) of the same compound?
Its TGI is over 100 µM.

What about the TGI (ACHN renal) of the same compound?
Its TGI is over 100 µM.

And the TGI (TK-10 renal)?
Its TGI is over 100 µM.

And the TGI (SF-295 CNS)?
Its TGI is over 100 µM.

And the TGI (OVCAR-3 ovarian)?
Its TGI is over 100 µM.

What about the TGI (U251 CNS) of the same compound?
Its TGI is over 100 µM.

What about the TGI (SK-MEL-5 melanoma) of the same compound?
Its TGI is over 100 µM.

What about the TGI (PC-3 prostate) of the same compound?
The TGI was over 100 µM.

And the TGI (MCF7 breast)?
Its TGI is over 100 µM.

And the TGI (T-47D breast)?
Its TGI is over 100 µM.

And the TGI (MDA-N)?
The TGI was over 100 µM.

What about the TGI (NCI-H460 lung) of the same compound?
The TGI was over 100 µM.

What about the TGI (SW-620 colon) of the same compound?
The TGI was 61.9 µM.

And the TGI (SNB-19 CNS)?
The TGI was over 100 µM.

What about the TGI (SN12C renal) of the same compound?
Its TGI is over 100 µM.

What about the TGI (A549 NSCLC) of the same compound?
The TGI was over 100 µM.

And the TGI (SF-268 CNS)?
The TGI was 2.8 µM.

What about the TGI (COLO 205 colon) of the same compound?
The TGI was over 100 µM.

And the TGI (MOLT-4 leukemia)?
The TGI was over 100 µM.

What about the TGI (NCI-H522 lung) of the same compound?
The TGI was over 100 µM.

And the TGI (OVCAR-4 ovarian)?
Its TGI is over 100 µM.

And the TGI (BT-549 breast)?
Its TGI is over 100 µM.

What about the TGI (HCT-116 colon) of the same compound?
The TGI was over 100 µM.

And the TGI (M14 melanoma)?
The TGI was over 100 µM.

And the TGI (OVCAR-5 ovarian)?
The TGI was over 100 µM.

And the TGI (UO-31 renal)?
Its TGI is over 100 µM.

What about the TGI (DU-145 prostate) of the same compound?
The TGI was over 100 µM.

And the TGI (MDA-MB-435)?
The TGI was over 100 µM.

And the TGI (OVCAR-8 ovarian)?
The TGI was over 100 µM.

And the TGI (UACC-62 melanoma)?
Its TGI is over 100 µM.

And the TGI (SK-MEL-2 melanoma)?
Its TGI is over 100 µM.

What about the TGI (IGROV1 ovarian) of the same compound?
The TGI was over 100 µM.

What about the TGI (HL-60(TB) leukemia) of the same compound?
Its TGI is over 100 µM.
